Data set [1] relates to Staphylococcus aureus MS9861. The data set can be described thus: MIC by tube dilution method in brain heart infusion broth. The format is cell-based. The settings on record: MS9861, pH 7.5, read-out: Antimicrobial activity (MIC) Staphylococcus aureus MS9861. The method, then: (§1) The minimum growth inhibitory concentrations (MIC) of the compounds (I) against various microorganisms were measured by a tube dilution method in a brain heart infusion broth (pH 7.5) as a medium.

Data set [2] concerns Bacillus subtilis NRRL B-558. The data set is described as above. The format is cell-based. The settings on record: Bacillus subtilis. On the procedure:
as §1

Data set [3] concerns Staphylococcus aureus 209P. The description is as above. The format is cell-based. The settings on record: Staphylococcus aureus, 209P. On the procedure: as §1
Data set [4] concerns Klebsiella pneumoniae PCI602. The data set is described as above. The format is cell-based. The settings on record: Klebsiella pneumoniae. On the procedure:
as §1

The subject of a further data set is Escherichia coli NIHJ. Described as above. The settings on record: Escherichia coli, pH 7.5, read-out: Minimum growth inhibitory concentration. The format is cell-based. The method, then: as §1
Data set [5] concerns Staphylococcus aureus MS10225. The description is as above. The format is cell-based. The settings on record: Staphylococcus aureus, MS10225, pH 7.5, read-out: Minimum growth inhibitory concentration. On the procedure:
as §1

The test system of another data set is Sartina lutea PCI 1001. The description is as above. The format is cell-based. The settings on record: pH 7.5, read-out: Minimum growth inhibitory concentration. On the procedure:
as §1

For data set [6], the system named is Mycoplasma gallisepticum KP-13. Described as above. The format is cell-based. The settings on record: Mycoplasmoides gallisepticum, KP13, pH 7.5, read-out: Minimum growth inhibitory concentration. On the procedure:
as §1

For data set [7], the system named is Corynebacterium bovis 1810. Described as above. The format is cell-based. The settings on record: Corynebacterium bovis, 1810, pH 7.5, read-out: Minimum growth inhibitory concentration. The method, then:
as §1

The subject of data set [8] is Shigella dysenteriae JS 11910. The data set is described as above. The format is cell-based. The settings on record: JS11910, pH 7.5, read-out: Minimum growth inhibitory concentration. The method, then: as §1
Data set [9] is described as follows: Stability on standing at room temperature. The format is physicochemical. The settings on record: left to stand at room temperature for one month. An excerpt: Stable even when left to stand at room temperature for one month.
Setting [10] is: NRRLB558, pH 7.5, read-out: Antimicrobial activity (MIC) Bacillus subtilis NRRL B558.
[11] abbreviates: pH 7.5, read-out: Antimicrobial activity (MIC) Staphylococcus aureus 209P.
Where [12] appears, read: PCI602, pH 7.5, read-out: Antimicrobial activity (MIC) Klebsiella pneumonae PCI602.

The values that follow come from EP0052361A1, “Novel 16-membered macrolide compounds” (SANRAKU-OCEAN CO., LTD., priority 1980, dated 1982).

Converted amounts (≈) assume the structure as drawn. Read-outs that look alike come from different tables or passages of the source.

On to `CCC1OC(=O)CC(O)C(C)C(OC2OC(C)C(OC3CC(C)(OC(C)=O)C(OC(=O)Cc4cccnc4)C(C)O3)C(N(C)C)C2O)C(CC=O)CC(C)C(=O)C=CC(C)=CC1C` (stereo not drawn), for which the MIC was 1.6 µg/mL (≈ 1.8 µM) in data set [1], less than 0.2 µg/mL in data set [2] (setting [10]), 0.4 µg/mL (≈ 0.451 µM) in data set [3] (setting [11]) and 3.1 µg/mL (≈ 3.49 µM) in data set [4] (setting [12]).

Take `CCC1OC(=O)CC(O)C(C)C(OC2OC(C)C(OC3CC(C)(O)C(OC(=O)C(O)c4ccccc4)C(C)O3)C(N(C)C)C2O)C(CC=O)CC(C)C(=O)C=CC(C)=CC1C` (stereo not drawn): the MIC was 1.6 µg/mL (≈ 1.86 µM) in data set [1], 1.6 µg/mL (≈ 1.86 µM) in data set [2] (setting [10]), less than 0.2 µg/mL in data set [3] (setting [11]) and 3.1 µg/mL (≈ 3.6 µM) in [4] (setting [12]).

Regarding `CCC1OC(=O)CC(O)C(C)C(OC2OC(C)C(OC3CC(C)(O)C(OC(=O)C(OC(C)=O)c4ccccc4)C(C)O3)C(N(C)C)C2O)C(CC=O)CC(C)C(=O)/C=C/C(C)=C/C1C` (stereo not drawn), the MIC worked out at 3.1 µg/mL (≈ 3.44 µM) in data set [1], 0.8 µg/mL (≈ 0.887 µM) in data set [2] (setting [10]), 0.8 µg/mL (≈ 0.887 µM) in data set [3] (setting [11]) and 25 µg/mL (≈ 27.7 µM) in [4] (setting [12]).

`CCC1OC(=O)CC(O)C(C)C(OC2OC(C)C(OC3CC(C)(O)C(OC(=O)C4CCCCC4)C(C)O3)C(N(C)C)C2O)C(CC=O)CC(C)C(=O)/C=C/C(C)=C/C1C` (stereo not drawn): the MIC in data set [1] is 3.1 µg/mL (≈ 3.71 µM); in data set [2] (setting [10]), 0.2 µg/mL (≈ 0.239 µM); in data set [3] (setting [11]) it was 0.8 µg/mL (≈ 0.957 µM); in [4] (setting [12]) it was 12.5 µg/mL (≈ 15 µM).

As for `CCC1OC(=O)CC(O)C(C)C(OC2OC(C)C(OC3CC(C)(OC(C)=O)C(OC(=O)C4CCCCC4)C(C)O3)C(N(C)C)C2O)C(CC=O)CC(C)C(=O)/C=C/C(C)=C/C1C` (stereo not drawn), the MIC in data set [1] is 6.3 µg/mL (≈ 7.17 µM); in data set [2] (setting [10]), 0.4 µg/mL (≈ 0.456 µM); in data set [3] (setting [11]), 1.6 µg/mL (≈ 1.82 µM); in data set [4] (setting [12]) it was more than 100 µg/mL.

Take `CCC1OC(=O)CC(O)C(C)C(OC2OC(C)C(OC3CC(C)(O)C(OC(=O)Nc4ccccc4)C(C)O3)C(N(C)C)C2O)C(CC=O)CC(C)C(=O)/C=C/C(C)=C/C1C` (stereo not drawn): the MIC in data set [1] came out at 3.1 µg/mL (≈ 3.67 µM); in data set [2] (setting [10]) it was 0.8 µg/mL (≈ 0.947 µM); in [3] (setting [11]), 0.8 µg/mL (≈ 0.947 µM); in data set [4] (setting [12]), 6.3 µg/mL (≈ 7.46 µM).

On to `CCC1OC(=O)CC(O)C(C)C(OC2OC(C)C(OC3CC(C)(O)C(OS(=O)(=O)c4ccc(C)cc4)C(C)O3)C(N(C)C)C2O)C(CC=O)CC(C)C(=O)/C=C/C(C)=C/C1C` (stereo not drawn), for which the MIC was 6.3 µg/mL (≈ 7.16 µM) in data set [1], 0.4 µg/mL (≈ 0.454 µM) in data set [2] (setting [10]), less than 0.2 µg/mL in data set [3] (setting [11]) and 3.1 µg/mL (≈ 3.52 µM) in [4] (setting [12]).

With `CCC1OC(=O)CC(O)C(C)C(OC2OC(C)C(OC3CC(C)(O)C(OC(=O)CSc4ccncc4)C(C)O3)C(N(C)C)C2O)C(CC=O)CC(C)C(=O)C=CC(C)=CC1C` (stereo not drawn), the MIC in [1] is 1.6 µg/mL (≈ 1.82 µM); in data set [2] (setting [10]) it was less than 0.2 µg/mL; in [3] (setting [11]) it was less than 0.2 µg/mL; in data set [4] (setting [12]) it was 3.1 µg/mL (≈ 3.53 µM).

Consider `CCC1OC(=O)CC(O)C(C)C(OC2OC(C)C(OC3CC(C)(O)C(OC(=O)Cc4cccs4)C(C)O3)C(N(C)C)C2O)C(CC=O)CC(C)C(=O)C=CC(C)=CC1C` (stereo not drawn), for which the MIC came out at 1.6 µg/mL (≈ 1.88 µM) in data set [1], 0.4 µg/mL (≈ 0.471 µM) in data set [2] (setting [10]), 0.2 µg/mL (≈ 0.235 µM) in [3] (setting [11]) and 3.1 µg/mL (≈ 3.65 µM) in data set [4] (setting [12]).

As to `CCC1OC(=O)CC(O)C(C)C(OC2OC(C)C(OC3CC(C)(OC(C)=O)C(OC(=O)CSc4ccncc4)C(C)O3)C(N(C)C)C2O)C(CC=O)CC(C)C(=O)C=CC(C)=CC1C` (stereo not drawn), the MIC was 0.8 µg/mL (≈ 0.87 µM) in data set [1], less than 0.2 µg/mL in data set [2] (setting [10]), less than 0.2 µg/mL in data set [3] (setting [11]) and 6.3 µg/mL (≈ 6.85 µM) in data set [4] (setting [12]).

For `CCC1OC(=O)CC(O)C(C)C(OC2OC(C)C(OC3CC(C)(O)C(OC(=O)Cc4cccnc4)C(C)O3)C(N(C)C)C2O)C(CC=O)CC(C)C(=O)C=CC(C)=CC1C` (stereo not drawn), the MIC in data set [1] was 0.8 µg/mL (≈ 0.947 µM); in [2] (setting [10]) it was less than 0.2 µg/mL; in [3] (setting [11]), less than 0.2 µg/mL; in data set [4] (setting [12]) it was 1.6 µg/mL (≈ 1.89 µM).

On to `CCC1OC(=O)CC(O)C(C)C(OC2OC(C)C(OC3CC(C)(O)C(OC4CCCCO4)C(C)O3)C(N(C)C)C2O)C(CC=O)CC(C)C(=O)/C=C/C(C)=C/C1C` (stereo not drawn), for which the MIC in [1] came to 3.1 µg/mL (≈ 3.83 µM); in [2] (setting [10]) it was 0.4 µg/mL (≈ 0.494 µM); in data set [3] (setting [11]) it was 1.6 µg/mL (≈ 1.98 µM); in [4] (setting [12]), 3.1 µg/mL (≈ 3.83 µM).

Consider `CCC1OC(=O)CC(O)C(C)C(OC2OC(C)C(OC3CC(C)(O)C(O)C(C)O3)C(N(C)C)C2O)C(CC=O)CC(C)C(=O)C=CC(C)=CC1C` (stereo not drawn) [Antibiotic YT-3927, antibiotic YT-3927], for which the MIC with Escherichia coli NIHJ was 25 µg/mL (≈ 34.4 µM); in data set [1], 3.1 µg/mL (≈ 4.27 µM); in data set [2] (setting [10]), 0.4 µg/mL (≈ 0.551 µM); in data set [2] (NRRLB558, pH 7.5, read-out: Minimum growth inhibitory concentration), 0.39 µg/mL (≈ 0.537 µM); in data set [5] it was 0.78 µg/mL (≈ 1.07 µM); in the data set on Sartina lutea PCI 1001, less than 0.2 µg/mL. The MIC was found to be 0.4 µg/mL (≈ 0.551 µM) in [3] (setting [11]); 0.39 µg/mL (≈ 0.537 µM) in data set [3] (pH 7.5, read-out: Minimum growth inhibitory concentration); 0.02 µg/mL (≈ 0.0276 µM) in data set [6]; 0.39 µg/mL (≈ 0.537 µM) in data set [7]; 3.1 µg/mL (≈ 4.27 µM) in [4] (setting [12]); 3.12 µg/mL (≈ 4.3 µM) in [4] (PCI602, pH 7.5, read-out: Minimum growth inhibitory concentration). In data set [8], the MIC was found to be 1.56 µg/mL (≈ 2.15 µM). Further, the Stability entry in data set [9] was “Stable”.

Consider `CCC1OC(=O)CC(OC(C)=O)C(C)C(OC2OC(C)C(OC3CC(C)(OC(C)=O)C(OC(C)=O)C(C)O3)C(N(C)C)C2O)C(CC=O)CC(C)C(=O)C=CC(C)=CC1C` (stereo not drawn) [R1=COCH3; R2=COCH3; YR3=COCH3, 3,3",4"-triacetyl YT-3927], for which the MIC in data set [1] stood at 3.1 µg/mL (≈ 3.64 µM); in data set [2] (setting [10]), 0.4 µg/mL (≈ 0.469 µM); in data set [3] (setting [11]) it was 1.6 µg/mL (≈ 1.88 µM); in data set [4] (setting [12]), 100 µg/mL (≈ 117 µM).

As for `CCC1OC(=O)CC(OC(C)=O)C(C)C(OC2OC(C)C(OC3CC(C)(O)C(OC(=O)CC(C)C)C(C)O3)C(N(C)C)C2O)C(CC=O)CC(C)C(=O)C=CC(C)=CC1C` (stereo not drawn) [R1=COCH3; R2=H; YR3=COCH2CH(CH3)2, 3-acetyl-4"-isovaleryl YT-3927], the MIC worked out at 6.3 µg/mL (≈ 7.39 µM) in [1], 0.8 µg/mL (≈ 0.939 µM) in data set [2] (setting [10]), 0.4 µg/mL (≈ 0.469 µM) in data set [3] (setting [11]) and 25 µg/mL (≈ 29.3 µM) in data set [4] (setting [12]).

As for `CCC1OC(=O)CC(O)C(C)C(OC2OC(C)C(OC3CC(C)(OC(C)=O)C(OC(=O)CC(C)C)C(C)O3)C(N(C)C)C2O)C(CC=O)CC(C)C(=O)C=CC(C)=CC1C` (stereo not drawn) [R1=H; R2=COCH3; YR3=COCH2CH(CH3)2], the MIC stood at 1.6 µg/mL (≈ 1.88 µM) in [1], 0.8 µg/mL (≈ 0.939 µM) in data set [2] (setting [10]), 0.8 µg/mL (≈ 0.939 µM) in data set [3] (setting [11]) and 25 µg/mL (≈ 29.3 µM) in [4] (setting [12]).

Consider `CCC1OC(=O)CC(O)C(C)C(OC2OC(C)C(OC3CC(C)(O)C(OC(=O)CC(C)C)C(C)O3)C(N(C)C)C2O)C(CC=O)CC(C)C(=O)C=CC(C)=CC1C` (stereo not drawn) [R1=H; R2=H; YR3=COCH2CH(CH3)2, 4"-isovaleryl YT-3927], for which the MIC in data set [1] was determined as 1.6 µg/mL (≈ 1.98 µM); in [2] (setting [10]) it was 0.4 µg/mL (≈ 0.494 µM); in data set [3] (setting [11]) it was 0.4 µg/mL (≈ 0.494 µM); in [4] (setting [12]), 6.3 µg/mL (≈ 7.78 µM).
